{"source": "the supplement of paper PMC10307832", "test_in_all_cases": "relative viability (nuclei count vs DMSO), 5 days (fraction); higher = more cells survive", "key": {"NCI-H1944": {"system": "NCI-H1944", "how_it_was_run": "(§1)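 Values are medians from duplicate plates. Each reflects relative viability, defined as the nuclei count of treated wells over that of vehicle wells. Lung cancer cell lines in 1536-well plates were pin-tool dosed one day after seeding with one drug alone or with a fixed anchor-drug dose plus five library-drug doses (not always all listed) in √10 steps, then fixed, stained and imaged at 4× after 5 days.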"}, "NCI-H2347": {"system": "NCI-H2347", "how_it_was_run": "as §1"}, "NCI-H23": {"system": "NCI-H23", "how_it_was_run": "as §1"}, "NCI-H460": {"system": "NCI-H460", "how_it_was_run": "as §1"}, "NCI-H650": {"system": "NCI-H650", "how_it_was_run": "as §1"}, "NCI-H727": {"system": "NCI-H727", "how_it_was_run": "as §1"}, "NCI-H838": {"system": "NCI-H838", "how_it_was_run": "as §1"}, "PC-14": {"system": "PC-14", "how_it_was_run": "as §1"}, "PC-3 [JPC-3]": {"system": "PC-3 [JPC-3]", "how_it_was_run": "as §1"}, "RERF-LC-KJ": {"system": "RERF-LC-KJ", "how_it_was_run": "as §1"}, "SW 1573": {"system": "SW 1573", "how_it_was_run": "as §1"}, "SW 900": {"system": "SW 900", "how_it_was_run": "as §1"}}}
{"molecule": "COc1cc(N2CCC(C(N)=O)CC2)ccc1Nc1nc(N)c(Cl)c(Nc2ccccc2S(=O)(=O)C(C)C)n1", "note": "[HG-5-88-01] + CC(=O)c1c(C)c2cnc(Nc3ccc(N4CCNCC4)cn3)nc2n(C2CCCC2)c1=O [Palbociclib] (partner 0.5 µM)", "values": [{"measurement": "relative viability", "setting": "NCI-H1944; first compound 1.265 µM", "value": 0.322}, {"measurement": "relative viability", "setting": "NCI-H1944; first compound 4 µM", "value": 0.31}, {"measurement": "relative viability", "setting": "NCI-H2347; first compound 0.04 µM", "value": 0.439}, {"measurement": "relative viability", "setting": "NCI-H2347; first compound 0.1265 µM", "value": 0.417}, {"measurement": "relative viability", "setting": "NCI-H2347; first compound 0.4 µM", "value": 0.467}, {"measurement": "relative viability", "setting": "NCI-H2347; first compound 1.265 µM", "value": 0.431}, {"measurement": "relative viability", "setting": "NCI-H2347; first compound 4 µM", "value": 0.425}, {"measurement": "relative viability", "setting": "NCI-H23; first compound 0.04 µM", "value": 0.507}, {"measurement": "relative viability", "setting": "NCI-H23; first compound 0.1265 µM", "value": 0.549}, {"measurement": "relative viability", "setting": "NCI-H23; first compound 0.4 µM", "value": 0.545}, {"measurement": "relative viability", "setting": "NCI-H23; first compound 1.265 µM", "value": 0.378}, {"measurement": "relative viability", "setting": "NCI-H23; first compound 4 µM", "value": 0.263}, {"measurement": "relative viability", "setting": "NCI-H460; first compound 0.04 µM", "value": 0.171}, {"measurement": "relative viability", "setting": "NCI-H460; first compound 0.1265 µM", "value": 0.155}, {"measurement": "relative viability", "setting": "NCI-H460; first compound 0.4 µM", "value": 0.0931}, {"measurement": "relative viability", "setting": "NCI-H460; first compound 1.265 µM", "value": 0.247}, {"measurement": "relative viability", "setting": "NCI-H460; first compound 4 µM", "value": 0.274}, {"measurement": "relative viability", "setting": "NCI-H650; first compound 0.04 µM", "value": 0.398}, {"measurement": "relative viability", "setting": "NCI-H650; first compound 0.1265 µM", "value": 0.341}, {"measurement": "relative viability", "setting": "NCI-H650; first compound 0.4 µM", "value": 0.338}, {"measurement": "relative viability", "setting": "NCI-H650; first compound 1.265 µM", "value": 0.303}, {"measurement": "relative viability", "setting": "NCI-H650; first compound 4 µM", "value": 0.296}, {"measurement": "relative viability", "setting": "NCI-H727; first compound 0.04 µM", "value": 0.677}, {"measurement": "relative viability", "setting": "NCI-H727; first compound 0.1265 µM", "value": 0.629}, {"measurement": "relative viability", "setting": "NCI-H727; first compound 0.4 µM", "value": 0.66}, {"measurement": "relative viability", "setting": "NCI-H727; first compound 4 µM", "value": 0.61}, {"measurement": "relative viability", "setting": "NCI-H838; first compound 0.04 µM", "value": 0.189}, {"measurement": "relative viability", "setting": "NCI-H838; first compound 0.1265 µM", "value": 0.207}, {"measurement": "relative viability", "setting": "NCI-H838; first compound 0.4 µM", "value": 0.173}, {"measurement": "relative viability", "setting": "NCI-H838; first compound 1.265 µM", "value": 0.177}, {"measurement": "relative viability", "setting": "NCI-H838; first compound 4 µM", "value": 0.168}, {"measurement": "relative viability", "setting": "PC-14; first compound 0.04 µM", "value": 0.545}, {"measurement": "relative viability", "setting": "PC-14; first compound 0.1265 µM", "value": 0.611}, {"measurement": "relative viability", "setting": "PC-14; first compound 0.4 µM", "value": 0.464}, {"measurement": "relative viability", "setting": "PC-14; first compound 1.265 µM", "value": 0.221}, {"measurement": "relative viability", "setting": "PC-14; first compound 4 µM", "value": 0.0845}, {"measurement": "relative viability", "setting": "PC-3 [JPC-3]; first compound 0.04 µM", "value": 0.485}, {"measurement": "relative viability", "setting": "PC-3 [JPC-3]; first compound 0.1265 µM", "value": 0.586}, {"measurement": "relative viability", "setting": "PC-3 [JPC-3]; first compound 0.4 µM", "value": 0.512}, {"measurement": "relative viability", "setting": "PC-3 [JPC-3]; first compound 1.265 µM", "value": 0.426}, {"measurement": "relative viability", "setting": "PC-3 [JPC-3]; first compound 4 µM", "value": 0.422}, {"measurement": "relative viability", "setting": "RERF-LC-KJ; first compound 0.04 µM", "value": 1.07}, {"measurement": "relative viability", "setting": "RERF-LC-KJ; first compound 0.1265 µM", "value": 1.14}, {"measurement": "relative viability", "setting": "RERF-LC-KJ; first compound 0.4 µM", "value": 1.08}, {"measurement": "relative viability", "setting": "RERF-LC-KJ; first compound 1.265 µM", "value": 0.908}, {"measurement": "relative viability", "setting": "RERF-LC-KJ; first compound 4 µM", "value": 0.656}, {"measurement": "relative viability", "setting": "SW 1573; first compound 0.04 µM", "value": 0.412}, {"measurement": "relative viability", "setting": "SW 1573; first compound 0.1265 µM", "value": 0.369}, {"measurement": "relative viability", "setting": "SW 1573; first compound 0.4 µM", "value": 0.337}, {"measurement": "relative viability", "setting": "SW 1573; first compound 1.265 µM", "value": 0.257}, {"measurement": "relative viability", "setting": "SW 1573; first compound 4 µM", "value": 0.277}, {"measurement": "relative viability", "setting": "SW 900; first compound 0.04 µM", "value": 0.54}, {"measurement": "relative viability", "setting": "SW 900; first compound 0.1265 µM", "value": 0.584}, {"measurement": "relative viability", "setting": "SW 900; first compound 0.4 µM", "value": 0.473}, {"measurement": "relative viability", "setting": "SW 900; first compound 1.265 µM", "value": 0.509}, {"measurement": "relative viability", "setting": "SW 900; first compound 4 µM", "value": 0.567}]}
